Assay: Foaming properties (automated shake test, foam volume relative to solution and foam volume)
Format: physicochemical
Settings: 2 wt % in 45% KOH
Source text: Determining the Foaming Properties of Surfactants
Foaming results from surfactants occupying the air/solution interface to stabilize films of solution that encircle air under agitation. Surfactants may produce more or less foam and contribute to higher or lower stability of these foams. This characteristic of a surfactant may be shown by shaking a tube in a controlled, repeatable fashion (generally through the use of automation) and then measuring the volume of foam in the tube relative to the volume of both foam and solution. Numerous examples of variations on this method may be found in scientific literature, such as Amaral, das Neves, J., Oliveira, Â. Z., and Bahia, M. F., “Foamability of Detergent Solutions Prepared with Different Types of Surfactants and Waters”, Journal of Surfactants and Detergents, 11, 275-278 (2008).
The foaming properties of solutions of Monosodium Cyclohexylamine Dipropionate (Example 1), Monosodium Butyloxypropylamine Dipropionate (Example 2), and 1.5 Sodium Butyloxypropylaminopropylamine Tripropionate (Example 3), prepared as 2 wt % in 45% KOH, were examined. Samples of each solution were shaken vigorously in an automated apparatus to ensure identical treatment of each sample and the volume of foam relative to the total volume of solution and foam was determined.

## 1.5 Sodium Butyloxypropylaminopropylamine Tripropionate [Example 3]
1 Minute
  Foam Volume (as Percentage of Solution and Foam Volume): 57.5 Percentage of Solution and Foam Volume
3 Minutes
  Foam Volume (as Percentage of Solution and Foam Volume): 53.1 Percentage of Solution and Foam Volume
Initial
  Foam Volume (as Percentage of Solution and Foam Volume): 57.6 Percentage of Solution and Foam Volume

From US11473034B2, “Highly stable and alkaline cleaning solutions and soluble surfactant” (EVONIK OPERATIONS GMBH, priority 2018, dated 2022)
